Test [1] in a line: Inhibition of HCV NS3 protease by FRET assay. Details: species or system Hepacivirus hominis.
Test [2] has as its system Hepatitis C virus. In words: Antiviral activity against HCV in replicon assay. The class given is functional, Hepacivirus hominis. The note with it: read-out: ED50 (the source's name). (In antiviral work, replicon cells carry a viral genome segment that copies itself.)
Test [3] concerns the target NS3 (Hepatitis C virus, UniProt A3EZJ3). The test can be described thus: Inhibition of HCV 1a NS3 protease. Details: species or system Hepatitis C virus subtype 1a.
The subject of test [4] is Hepatitis C virus. In words: Inhibition of HCV 1b NS3 protease. Also noted: species or system Hepatitis C virus subtype 1b.

Structures are written as SMILES. Starred links: 1 amine or outer side, 2 acyl side, 3 side chain; linkers in the order of their positions; H or OH if unused. Non-standard residues stand in square brackets, D forms with d. Residues, ends and D or L forms follow the SMILES beside them. Chg = N[C@H](C(=O)O)C1CCCCC1; Suc = O=C(CCC(=O)[*:2])[*:1]

Sequence of NS3 (A3EZJ3 whole entry): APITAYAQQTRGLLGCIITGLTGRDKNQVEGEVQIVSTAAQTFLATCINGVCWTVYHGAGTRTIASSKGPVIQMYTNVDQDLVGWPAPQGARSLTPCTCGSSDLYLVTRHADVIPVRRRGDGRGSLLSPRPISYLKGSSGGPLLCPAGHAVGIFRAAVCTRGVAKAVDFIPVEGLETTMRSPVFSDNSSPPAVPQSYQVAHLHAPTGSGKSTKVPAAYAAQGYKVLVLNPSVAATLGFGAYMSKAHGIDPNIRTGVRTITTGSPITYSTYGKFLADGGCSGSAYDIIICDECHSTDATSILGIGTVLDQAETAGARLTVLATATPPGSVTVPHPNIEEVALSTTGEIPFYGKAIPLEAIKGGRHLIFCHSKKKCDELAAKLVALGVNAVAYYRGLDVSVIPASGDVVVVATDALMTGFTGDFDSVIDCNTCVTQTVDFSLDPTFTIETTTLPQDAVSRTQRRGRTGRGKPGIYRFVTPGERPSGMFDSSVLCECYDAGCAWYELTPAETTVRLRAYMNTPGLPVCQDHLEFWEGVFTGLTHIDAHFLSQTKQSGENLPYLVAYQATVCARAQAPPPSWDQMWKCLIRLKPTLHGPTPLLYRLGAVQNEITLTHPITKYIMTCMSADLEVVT

In general, Ki refers to a measure of affinity in units of concentration, obtained from inhibition or displacement. Turning to `COc1ccc2c(Oc3ccc([C@@H]4NC(=O)[C@@H](NC(=O)OC(C)(C)C)CCCCC/C=C\[C@@H]5C[C@@]5(C(=O)O)NC4=O)cc3)cc(-c3ccccc3)nc2c1`, the inhibition constant Ki in test [1] is 790 nM. The EC50 in test [2] is greater than 10000 nM.

The compound `CC(C)(C)OC(=O)N[C@H]1CCCCC/C=C\[C@@H]2C[C@@]2(C(=O)NS(=O)(=O)C2CC2)NC(=O)[C@H](c2ccc(Oc3nc(Cl)cc4ccccc34)cc2)NC1=O` had a Ki in test [1] of 74 nM. For the same compound, the EC50 in test [2] was greater than 10000 nM. As to `C=C[C@@H]1C[C@]1(NC(=O)[C@H](NC(=O)[C@@H](NC(=O)OC(C)(C)C)C(C)C)c1ccc(Oc2cc(-c3ccccc3)nc3cc(OC)ccc23)cc1)C(=O)NS(=O)(=O)c1ccccc1`, the Ki in test [1] worked out at 400 nM. In addition, the EC50 in test [2] was greater than 10000 nM.

As to `COc1ccc2c(Oc3ccc([C@@H]4NC(=O)[C@@H](NC(=O)OC(C)(C)C)CCCCC/C=C\[C@@H]5C[C@@]5(C(=O)NS(=O)(=O)c5ccccc5)NC4=O)cc3)cc(-c3ccccc3)nc2c1`, the affinity in test [1] corresponds to a Ki of 95 nM. In test [2], the EC50 was greater than 10000 nM. As for `CCC[C@H](NC(=O)[C@@H](NC(=O)[C@@H](NC(=O)OC(C)(C)C)C(C)(C)C)c1ccc(Oc2cc(-c3ccccc3)nc3cc(OC)ccc23)cc1)C(=O)NS(=O)(=O)c1ccccc1`, the inhibition constant Ki in test [1] stood at 230 nM. Also, the EC50 in test [2] was greater than 10000 nM. `C=C[C@@H]1C[C@]1(NC(=O)[C@H](NC(=O)[C@@H](NC(=O)OC(C)(C)C)C(C)(C)C)c1ccc(Oc2nc(Cl)cc3ccccc23)cc1)C(=O)NS(=O)(=O)C1CC1` registered a Ki in test [1] of 1100 nM. Compound `C=C[C@@H]1C[C@]1(NC(=O)[C@@H](NC(=O)[C@@H](NC(=O)OC(C)(C)C)C(C)(C)C)c1ccc(Oc2cccc(Cl)n2)cc1)C(=O)NS(=O)(=O)C1CC1` registered a Ki in test [1] of 2600 nM. Turning to `C=C[C@@H]1C[C@]1(NC(=O)[C@@H](NC(=O)[C@@H](NC(=O)OC(C)(C)C)C(C)(C)C)c1ccc(Oc2cc(-c3ccccc3)nc3cc(OC)ccc23)cc1)C(=O)NS(=O)(=O)c1ccccc1`, in test [1], the Ki was found to be 230 nM. Besides, the EC50 in test [2] is greater than 10000 nM.

`COc1ccc2c(Oc3ccc(C(NC(=O)[C@@H](NC(=O)OC(C)(C)C)C(C)(C)C)C(=O)N[C@@H](CC(F)F)C(=O)O)cc3)cc(-c3ccccc3)nc2c1` (stereo partly specified): in test [1], the Ki was found to be 2800 nM. Regarding `C=C[C@@H]1C[C@]1(NC(=O)[C@@H](NC(=O)[C@@H](NC(=O)OC(C)(C)C)C(C)(C)C)c1ccc(Oc2ccccn2)cc1)C(=O)NS(=O)(=O)C1CC1`, the Ki in test [1] was determined as 7000 nM.

Turning to `COc1ccc2c(Oc3ccc([C@H](NC(=O)[C@@H](NC(=O)OC(C)(C)C)C(C)(C)C)C(=O)NC4(C(=O)NS(=O)(=O)c5ccccc5)CC4)cc3)cc(-c3ccccc3)nc2c1`, the inhibition constant (Ki) in test [1] came to 1200 nM. For the same compound, in test [2], the EC50 was greater than 10000 nM.

In turn, `C=C[C@@H]1C[C@]1(NC(=O)[C@@H]1C[C@@H](Oc2cc(-c3ccccc3)nc3cc(OC)ccc23)CN1C(=O)[C@@H](NC(=O)OC(C)(C)C)C(C)C)C(=O)NS(=O)(=O)c1ccccc1` displayed a Ki in test [1] of 0.76 nM. In other words, the sub-nanomolar range. In the case of `COc1ccc2c(Oc3ccc([C@H](NC(=O)[C@@H](NC(=O)OC(C)(C)C)C(C)(C)C)C(=O)N[C@@H](CC(F)F)C(=O)NS(=O)(=O)C4CC4)cc3)cc(-c3ccccc3)nc2c1`, the inhibition constant Ki in test [1] is 780 nM. Also, in test [2], the EC50 was greater than 10000 nM.

With `C=C[C@@H]1C[C@]1(NC(=O)[C@@H](NC(=O)[C@@H](NC(=O)OC(C)(C)C)C(C)(C)C)c1ccc(Oc2nc(-c3ccncc3)cc3ccccc23)cc1)C(=O)NS(=O)(=O)C1CC1`, the inhibition constant (Ki) in test [1] turned out to be 290 nM. In test [2], the EC50 was greater than 10000 nM. In test [1], `C=C[C@@H]1C[C@]1(NC(=O)[C@@H](NC(=O)[C@@H](NC(=O)OC(C)(C)C)C(C)(C)C)c1ccc(OC)cc1)C(=O)NS(=O)(=O)C1CC1` had a Ki of 5400 nM. On to `C=C[C@@H]1C[C@]1(NC(=O)[C@H](NC(=O)[C@@H](NC(=O)OC(C)(C)C)C(C)(C)C)c1ccc(OC)cc1)C(=O)NS(=O)(=O)C1CC1`, for which affinity in test [1] was put at a Ki of 34000 nM. On the same count and under the same terms, then `CCC[C@H](NC(=O)[C@@H](NC(=O)[C@@H](NC(=O)OC(C)(C)C)C(C)C)c1ccc(O)cc1)C(=O)NS(=O)(=O)c1ccccc1`, with 130000 nM; and `CCC[C@H](NC(=O)[C@@H](NC(=O)[C@@H](NC(=O)OC(C)(C)C)C(C)C)c1ccc(Oc2cc(-c3ccccc3)nc3cc(OC)ccc23)cc1)C(=O)NS(=O)(=O)c1ccccc1`, with 280 nM. `C=C[C@@H]1C[C@]1(NC(=O)[C@@H](NC(=O)[C@@H](NC(=O)OC(C)(C)C)C(C)C)c1ccc(Oc2cc(-c3ccccc3)nc3cc(OC)ccc23)cc1)C(=O)NS(=O)(=O)c1ccccc1` yielded a Ki in test [1] of 270 nM. The EC50 in test [2] is greater than 10000 nM.

In test [1], `C=C[C@@H]1C[C@]1(NC(=O)[C@@H](NC(=O)[C@@H](NC(=O)OC(C)(C)C)C(C)C)c1ccc(Oc2cc(-c3ccccc3)nc3cc(OC)ccc23)cc1)C(=O)NS(=O)(=O)C1CC1` yielded a Ki of 200 nM. `CC(C)(C)OC(=O)N[C@H]1CCCCC/C=C\[C@@H]2C[C@@]2(C(=O)NS(=O)(=O)C2CC2)NC(=O)[C@H](c2ccc(Oc3nc(-c4ccncc4)cc4ccccc34)cc2)NC1=O` came in with an inhibition constant (Ki) in test [1] of 240 nM. The Ki values of the last two compounds are within 1.5-fold of each other.

On to `C=C[C@@H]1C[C@]1(NC(=O)C(NC(=O)[C@@H](NC(=O)OC(C)(C)C)C(C)C)c1ccc(Oc2cc(-c3ccccc3)nc3cc(OC)ccc23)cc1)C(=O)O` (stereo partly specified), for which the affinity in test [1] corresponds to a Ki of 2400 nM. Besides, in test [2], the EC50 came to 8500 nM. `CC[C@@H](C)[C@H](NC(=O)[C@@H](NC(=O)CCC(=O)O)C1CCCCC1)C(=O)N[C@H](C(=O)N[C@@H](CS)C(=O)O)c1ccccc1` came in with an inhibition constant (Ki) in test [1] of 1000 nM. For the compound `C=C[C@@H]1C[C@]1(NC(=O)[C@@H](NC(=O)[C@@H](NC(=O)OC(C)(C)C)C(C)(C)C)c1ccc(Oc2cc(-c3ccccc3)nc3cc(OC)ccc23)cc1)C(=O)NS(=O)(=O)C1CC1`, the Ki in test [1] turned out to be 180 nM. Moreover, the EC50 in test [2] is greater than 10000 nM. `C=C[C@@H]1C[C@]1(NC(=O)[C@@H](NC(=O)[C@@H](NC(=O)OC(C)(C)C)C(C)(C)C)c1ccc(Oc2nc(Cl)cc3ccccc23)cc1)C(=O)NS(=O)(=O)C1CC1` showed a Ki in test [1] of 410 nM. Besides, the EC50 in test [2] was greater than 10000 nM. Take `CC(C)(C)OC(=O)N[C@H]1CCCCC/C=C\[C@@H]2C[C@@]2(C(=O)O)NC(=O)[C@H](c2ccc(Oc3nc(-c4ccncc4)cc4ccccc34)cc2)NC1=O`: the inhibitory constant (Ki) in test [1] came to 1300 nM. Same read-out and setting: then `CCC[C@H](NC(=O)[C@@H]1C[C@@H](Oc2cc(-c3ccccc3)nc3cc(OC)ccc23)CN1C(=O)[C@@H](NC(=O)OC(C)(C)C)C(C)C)C(=O)NS(=O)(=O)c1ccccc1`, with 300 nM. In turn, `COc1ccc2c(Oc3ccc([C@@H]4NC(=O)[C@@H](NC(=O)OC(C)(C)C)CCCCC/C=C\[C@@H]5C[C@@]5(C(=O)NS(=O)(=O)C5CC5)NC4=O)cc3)cc(-c3ccccc3)nc2c1` gave a Ki in test [1] of 76 nM. In test [2], the EC50 amounted to 4600 nM.

`CC(C)(C)OC(=O)N[C@H]1CCCCC/C=C\[C@@H]2C[C@@]2(C(=O)O)NC(=O)[C@H](c2ccc(Oc3nc(Cl)cc4ccccc34)cc2)NC1=O` gave a Ki in test [1] of 1100 nM. In other words, the single-digit micromolar range. `CC[C@H](C)[C@H](NC(=O)[C@@H](NC(=O)CCC(=O)O)C1CCCCC1)C(=O)N1CCC[C@H]1C(=O)N[C@@H](CS)C(=O)O` (Suc-[Chg]IPC-OH) displayed an inhibition constant Ki in test [1] of 23000 nM. With `COc1ccc2c(O[C@@H]3C[C@H]4C(=O)N[C@]5(C(=O)O)C[C@H]5/C=C\CCCCC[C@H](NC(=O)OC5CCCC5)C(=O)N4C3)cc(-c3csc(NC(C)C)n3)nc2c1` [CILUPREVIR], the values for the Ki in test [3] and in test [4] were 0.3 nM and 0.66 nM, respectively.

The record behind these values is ChEMBL document CHEMBL1146301, “Phenylglycine as a novel P2 scaffold in hepatitis C virus NS3 protease inhibitors” (Bioorg Med Chem, 2007).
